Legend:
Aspergillus niger = experiment: Antimicrobial test against Aspergillus niger; format: cell-based; details: 96 h, Vogel medium, 25° C., 4 days in the dark, turbidity at 405 nm, read-out: growth inhibition rate
Method: Spores of Aspergillus niger were added to and dispersed in a Vogel medium, and a dihydropyrimidine compound dissolved in dimethyl sulfoxide was added and mixed thereto at 25 ppm. The resulting solution was dispensed onto a 96-well microplate and cultivated in the dark at 25° C. for 4 days.
After the cultivation, the turbidity at a wavelength of 405 nm was measured by a microplate reader and compared with that in the untreated case to determine the growth inhibition of Aspergillus niger (%) was determined.

[1] = test system: apple scab pathogen (Venturia inaequalis); experiment: Apple scab control test; format: in vivo; details: 336 h, 125 ppm drug solution sprayed onto apple seedlings (Orin), lesion area ratio 2 weeks after inoculation
Method: (§1) 5 parts by weight of the dihydropyrimidine compound of the present invention, 93.5 parts by weight of N,N-dimethylformamide, and 1.5 parts by weight of polyoxyethylene sorbitan monolaurate (TWEEN® 20) were mixed and dissolved to obtain an emulsion (I) including 5% of an active ingredient.
(§2) The control value was calculated by the following expression. Control value (%)=100−{lesion area ratio in treated group/lesion area ratio in untreated group}×100 [Expression 1]
Water was added to the emulsion (I) such that the concentration of the dihydropyrimidine compound reached 125 ppm to dissolve the emulsion, and a drug solution was obtained. Subsequently, the drug solution was sprayed onto apple seedlings (variety: “Orin”, leaf stage: 3 to 4) cultivated in seedling pots. After air drying, the seedlings were inoculated with conidiospores of an apple scab pathogen (Venturia inaequalis) (treated group). As a control, apple seedlings that were not sprayed with the drug solution were inoculated in the same manner (untreated group). The seedlings were left to stand in a humidified room at 20° C. using a 12 hour light/dark cycle.
On the day 2 weeks after the inoculation, the leaves of the apple seedlings were visually observed to determine the lesion area ratio, and the control value was calculated.

[2] = test system: wheat powdery mildew pathogen (Erysiphe graminis f. sp. tritici); experiment: Wheat powdery mildew control test; format: in vivo; details: Blumeria graminis, 144 h; 125 ppm drug solution sprayed onto wheat seedlings (Chihoku); lesion area ratio 6 days after inoculation
Method: as §1, §2
Water was added to the emulsion (I) such that the concentration of the dihydropyrimidine compound reached 125 ppm to dissolve the emulsion, and a drug solution was obtained. Subsequently, the drug solution was sprayed onto wheat seedlings (variety: “Chihoku”, leaf stage: 1 to 2) cultivated in seedling pots. After air drying, conidiospores of a wheat powdery mildew pathogen (Erysiphe graminis f. sp. tritici) were sprinkled thereon for inoculation (treated group). As a control, wheat seedlings that were not sprayed with the drug solution were inoculated in the same manner as described above (untreated group). The seedlings were left to stand in a greenhouse at 20° C.
On the 6 days after the inoculation, the leaves of the wheat seedlings were visually observed to determine the lesion area ratio, and the control value was calculated.

[3] = test system: wheat powdery mildew pathogen (Erysiphe graminis f. sp. tritici); experiment: Wheat powdery mildew seed treatment test; format: in vivo; details: Blumeria graminis, 168 h; seed treatment 100 g/100 kg wheat seeds (Chihoku); inoculation after 8 to 10 days; lesion area ratio 7 days after inoculation
Method: as §1, §2
The emulsion (I) was used to treat seeds such that (weight of dihydropyrimidine compound)/(weight of seeds) reached 100 g/100 kg based on the wheat seeds (variety: “Chihoku”). These seeds were disseminated in pots, and after 8 to 10 days, conidiospores of a wheat powdery mildew pathogen (Erysiphe graminis f. sp. tritici) were sprinkled thereon for inoculation (treated group). As a control, wheat seedlings that were not treated with the drug were inoculated in the same manner as described above (untreated group). The seedlings were left to stand in a greenhouse at 20° C.
(§3) On the 7 days after the inoculation, the leaves of the wheat seedlings were visually observed to determine the lesion area ratio, and the control value was calculated.

[4] = test system: wheat powdery mildew pathogen (Erysiphe graminis f. sp. tritici); experiment: Wheat powdery mildew soil irrigation treatment test; format: in vivo; details: Blumeria graminis, 168 h; soil irrigation with 10 ml of 100 ppm drug solution per pot, wheat (Chihoku); inoculation after 8 to 10 days; lesion area ratio 7 days after inoculation
Method: as §1, §2
Pots (5.5 cm×5.5 cm) in which wheat seeds (variety: “Chihoku”) were disseminated were irrigated with 10 ml of a drug solution prepared by adding water to the emulsion (I) so as to have a concentration of the dihydropyrimidine compound of 100 ppm. After 8 to 10 days, conidiospores of a wheat powdery mildew pathogen (Erysiphe graminis f. sp. tritici) were sprinkled thereon for inoculation (treated group). As a control, wheat seedlings that were not treated with the drug were inoculated in the same manner as described above (untreated group). The seedlings were left to stand in a greenhouse at 20° C.
as §3

CCON=Cc1cn(CC(OCCC#N)c2cc(F)ccc2OC)c(=O)n(CC(C)(C)C(=O)NC(C)C)c1=O (stereo not shown) [A-7]
inhibition at 25 ppm (Aspergillus niger): ≥ 50%
pest or weed control at 125 ppm [1]: ≥ 75%

CCON=Cc1cn(CC(OCCC#N)c2cc(F)ccc2OC)c(=O)n(CCNC(=O)OC(C)(C)C)c1=O (stereo not shown) [A-18]
pest or weed control at 125 ppm [1]: ≥ 75%
pest or weed control at 125 ppm [2]: ≥ 75%

CCON=C(C)c1cn(CC(O)c2cc(F)ccc2OC)c(=O)n(C(C)C(=O)NC(C)C)c1=O (stereo not shown) [A-31]
pest or weed control at 125 ppm [1]: ≥ 75%
pest or weed control at 125 ppm [2]: ≥ 75%

CCO/N=C(\C)c1cn(CC(O)c2cc(F)ccc2OC)c(=O)n(CCNC(=O)C(C)C)c1=O (stereo not shown) [A-37, N-(2-(5-(1-(ethoxyimino)ethyl)-3-(2-(5-fluoro-2-methoxyphenyl)-2-hydroxyethyl)-2,6-dioxo-3,6-dihydropyrimidin-1(2H)-yl)ethyl)isobutyramide]
inhibition at 25 ppm (Aspergillus niger): ≥ 50%
pest or weed control at 125 ppm [1]: ≥ 75%

CCO/N=C(\C)c1cn(CC(OCCC#N)c2cc(F)ccc2OC)c(=O)n(CCNC(=O)C(C)C)c1=O (stereo not shown) [A-38, N-(2-(3-(2-(2-cyanoethoxy)-2-(5-fluoro-2-methoxyphenyl)ethyl)-5-(1-(ethoxyimino)ethyl)-2,6-dioxo-3,6-dihydropyrimidin-1(2H)-yl)ethyl)isobutyramide]
inhibition at 25 ppm (Aspergillus niger): ≥ 50%
pest or weed control at 125 ppm [1]: ≥ 75%
pest or weed control at 125 ppm [2]: ≥ 75%

CCO/N=C(\C)c1cn(CC(O)c2cc(F)ccc2OC)c(=O)n(C[C@H](C)NC(=O)C(C)C)c1=O (stereo partly shown) [A-42]
inhibition at 25 ppm (Aspergillus niger): ≥ 50%
pest or weed control at 125 ppm [1]: ≥ 75%
pest or weed control at 125 ppm [2]: ≥ 75%

CCO/N=C(\C)c1cn(/C=C(\OC(=O)C(C)C)c2cc(F)ccc2OC)c(=O)n(C[C@H](C)NC(=O)C(C)C)c1=O [A-46]
pest or weed control at 125 ppm [1]: ≥ 75%
pest or weed control at 125 ppm [2]: ≥ 75%

C/C(=N\OC(C)C)c1cn(CC(O)c2ccccc2OC(C)C)c(=O)n(C[C@H](C)NC(=O)C(C)C)c1=O (stereo partly shown) [A-49]
pest or weed control at 125 ppm [1]: ≥ 75%
pest or weed control at 125 ppm [2]: ≥ 75%

CCOc1ccccc1C(O)Cn1cc(/C(C)=N/OC(C)C)c(=O)n(C[C@H](C)NC(=O)C(C)C)c1=O (stereo partly shown) [A-51]
inhibition at 25 ppm (Aspergillus niger): ≥ 50%
pest or weed control at 125 ppm [1]: ≥ 75%
pest or weed control at 125 ppm [2]: ≥ 75%

COc1ccc(F)cc1C(O)Cn1cc(C=NOC(C)C)c(=O)n(C(C)C(=O)N2CCOCC2)c1=O (stereo not shown) [A-71]
pest or weed control at 125 ppm [1]: ≥ 75%
pest or weed control at 125 ppm [2]: ≥ 75%

COc1ccc(F)cc1C(O)Cn1cc(C=NOC(C)C)c(=O)n(C(C)CNC(=O)C(C)C)c1=O (stereo not shown) [A-79]
inhibition at 25 ppm (Aspergillus niger): ≥ 50%
pest or weed control at 125 ppm [1]: ≥ 75%
pest or weed control at 125 ppm [2]: ≥ 75%

COc1ccc(F)cc1C(Cn1cc(C=NOC(C)C)c(=O)n(C(C)C(=O)N2CCC2)c1=O)OCCC#N (stereo not shown) [A-81]
pest or weed control at 125 ppm [1]: ≥ 75%
pest or weed control at 125 ppm [2]: ≥ 75%

COc1ccc(F)cc1C(Cn1cc(C=NOC(C)C)c(=O)n(CC(=O)NC(C)C)c1=O)OCCC#N (stereo not shown) [A-84]
pest or weed control at 125 ppm [1]: ≥ 75%
pest or weed control at 125 ppm [2]: ≥ 75%

COc1ccc(F)cc1C(O)Cn1cc(C=NOC(C)C)c(=O)n(C(C)C(=O)N2CCC2)c1=O (stereo not shown) [A-86]
pest or weed control at 125 ppm [2]: ≥ 75%

CCO/N=C(\C)c1cn(CC(OC(C)=O)c2cc(F)ccc2OC)c(=O)n(CCNC(=O)C(C)C)c1=O (stereo not shown) [A-88]
inhibition at 25 ppm (Aspergillus niger): ≥ 50%
pest or weed control at 125 ppm [1]: ≥ 75%

COc1ccc(F)cc1C(O)Cn1cc(C=NOC(C)C)c(=O)n(C(C)C(=O)N2CCCCC2)c1=O (stereo not shown) [A-90]
inhibition at 25 ppm (Aspergillus niger): ≥ 50%
pest or weed control at 125 ppm [1]: ≥ 75%
pest or weed control at 125 ppm [2]: ≥ 75%

CCON=Cc1cn(CC(O)c2cc(F)ccc2OC)c(=O)n(CC(C)(C)NC(=O)C(C)C)c1=O (stereo not shown) [A-92]
pest or weed control at 125 ppm [2]: ≥ 75%

CCON=Cc1cn(CC(O)c2cc(F)ccc2OC)c(=O)n(C(C)C(=O)NC(C)C)c1=O (stereo not shown) [A-94]
pest or weed control at 125 ppm [1]: ≥ 75%
pest or weed control at 125 ppm [2]: ≥ 75%

CCO/N=C(\C)c1cn(CC(OC)c2cc(F)ccc2OC)c(=O)n(CCNC(=O)C(C)C)c1=O (stereo not shown) [A-96]
inhibition at 25 ppm (Aspergillus niger): ≥ 50%
pest or weed control at 125 ppm [1]: ≥ 75%
pest or weed control at 125 ppm [2]: ≥ 75%

CCO/N=C(\C)c1cn(CC(OC)c2cc(F)ccc2OC)c(=O)n(CCN(C)C(=O)C(C)C)c1=O (stereo not shown) [A-97]
inhibition at 25 ppm (Aspergillus niger): ≥ 50%
pest or weed control at 125 ppm [1]: ≥ 75%
pest or weed control at 125 ppm [2]: ≥ 75%

COc1ccc(F)cc1C(Cn1cc(/C(C)=N/OC(C)C)c(=O)n(CCNC(=O)C(C)C)c1=O)OCCC#N (stereo not shown) [A-101]
inhibition at 25 ppm (Aspergillus niger): ≥ 50%
pest or weed control at 125 ppm [1]: ≥ 75%
pest or weed control at 125 ppm [2]: ≥ 75%

COc1ccc(F)cc1C(O)Cn1cc(/C(C)=N/OC(C)C)c(=O)n(CCNC(=O)C(C)C)c1=O (stereo not shown) [A-102]
inhibition at 25 ppm (Aspergillus niger): ≥ 50%
pest or weed control at 125 ppm [1]: ≥ 75%
pest or weed control at 125 ppm [2]: ≥ 75%

CCON=Cc1cn(CCc2ccccc2OC)c(=O)n(C(C)C(=O)N2CCCCC2)c1=O (stereo not shown) [A-105]
pest or weed control at 125 ppm [1]: ≥ 75%
pest or weed control at 125 ppm [2]: ≥ 75%

CCO/N=C(\C)c1nn(CC(O)c2cc(F)ccc2OC)c(=O)n(C[C@H](C)NC(=O)C(C)C)c1=O (stereo partly shown) [B-1]
pest or weed control at 125 ppm [2]: ≥ 75%

CCO/N=C(\C)c1nn(CC(OCCC#N)c2cc(F)ccc2OC)c(=O)n(C(C)C(=O)NC(C)C)c1=O (stereo not shown) [B-3]
pest or weed control at 125 ppm [1]: ≥ 75%
pest or weed control at 125 ppm [2]: ≥ 75%

CC[C@@H](Cn1c(=O)c(/C(C)=N/OC(C)C)cn(CC(O)c2cc(F)ccc2OC)c1=O)NC(=O)N(C)C (stereo partly shown) [C-54]
inhibition at 25 ppm (Aspergillus niger): ≥ 50%
pest or weed control at 100 g/100 kg seed [3]: ≥ 75%

CCC(=O)N[C@@H](CC)Cn1c(=O)c(/C(C)=N/OC(C)C)cn(CC(O)c2cc(F)ccc2OC)c1=O (stereo partly shown) [C-56]
inhibition at 25 ppm (Aspergillus niger): ≥ 50%
pest or weed control at 100 g/100 kg seed [3]: ≥ 75%

CCN(CC)C(=O)N[C@H](Cn1c(=O)c(/C(C)=N/OC(C)C)cn(CC(O)c2cc(F)ccc2OC)c1=O)C(C)C (stereo partly shown) [C-67]
pest or weed control at 100 ppm [4]: ≥ 75%

COc1ccccc1C(O)Cn1cc(/C(C)=N/OC(C)C)c(=O)n(C[C@@H](NC(=O)c2ccccc2)C(C)C)c1=O (stereo partly shown) [C-85]
pest or weed control at 100 g/100 kg seed [3]: ≥ 75%

CCN(C)C(=O)N[C@H](Cn1c(=O)c(/C(C)=N/OC(C)C)cn(CC(O)c2cc(F)ccc2OC)c1=O)C(C)C (stereo partly shown) [C-89]
inhibition at 25 ppm (Aspergillus niger): ≥ 50%
pest or weed control at 100 g/100 kg seed [3]: ≥ 75%

COc1ccccc1C(O)Cn1cc(/C(C)=N/OC(C)C)c(=O)n(C[C@@H](NC(=O)CC(C)C)C(C)C)c1=O (stereo partly shown) [C-97]
pest or weed control at 100 g/100 kg seed [3]: ≥ 75%

COc1ccc(F)cc1C(O)Cn1cc(/C(C)=N/OC(C)C)c(=O)n(C[C@@H](NC(=O)C(C)(C)C)C(C)C)c1=O (stereo partly shown) [C-112]
inhibition at 25 ppm (Aspergillus niger): ≥ 50%
pest or weed control at 100 g/100 kg seed [3]: ≥ 75%

CCCC(=O)N[C@H](Cn1c(=O)c(/C(C)=N/OC(C)C)cn(CC(O)c2cc(F)ccc2OC)c1=O)C(C)C (stereo partly shown) [C-115]
inhibition at 25 ppm (Aspergillus niger): ≥ 50%
pest or weed control at 100 g/100 kg seed [3]: ≥ 75%

CCCC(=O)N[C@@H](C)Cn1c(=O)c(/C(C)=N/OC(C)C)cn(CC(O)c2cc(F)ccc2OC)c1=O (stereo partly shown) [C-135]
inhibition at 25 ppm (Aspergillus niger): ≥ 50%
pest or weed control at 100 g/100 kg seed [3]: ≥ 75%

COc1ccc(F)cc1C(O)Cn1cc(/C(C)=N/OC(C)C)c(=O)n(C[C@H](CCSC)NC(=O)C(C)C)c1=O (stereo partly shown) [C-176]
inhibition at 25 ppm (Aspergillus niger): ≥ 50%
pest or weed control at 100 g/100 kg seed [3]: ≥ 75%

COc1cc(F)c(F)cc1C(O)Cn1cc(/C(C)=N/OC(C)C)c(=O)n(C[C@H](C)NC(=O)C(C)C)c1=O (stereo partly shown) [C-182]
inhibition at 25 ppm (Aspergillus niger): ≥ 50%
pest or weed control at 100 ppm [4]: ≥ 75%

COc1ccc(F)cc1C(O)Cn1cc(/C(C)=N/OC(C)C)c(=O)n(C[C@H](C)NC(=O)NC(C)C)c1=O (stereo partly shown) [C-191]
pest or weed control at 100 ppm [4]: ≥ 75%
